Measured values published in patent publication US7166303B2, “Anesthetic formulations” (Maelor Pharmaceuticals Limited, priority 2000, dated 2007).
Converted amounts (≈) assume the structure as drawn.

Columns and labels:
[1] = 84% water/16% propylene glycol, ambient temperature
physchem = details: water, thermodynamic from solid
Procedure: Analyses were performed using the Perkin Elmer Lambda 5 UV/Vis Spectrophotometer.
Two sets of standards were prepared by serial dilution of: • 1. 10% poloxamer P407/1% Propofol solution in water. • 2. 1% Propofol solution in ethanol (EtOH).
Dilutions were performed with water and EtOH respectively. The standards were further diluted one hundred fold prior to measurement of their UV absorption spectra recorded.

CC(C)c1cccc(C(C)C)c1O [Propofol, 2,6-bis(1-methylethyl)phenol]
increase of solubility of Propofol over water alone [1]: approximately 50%
solubility thermodynamic (physchem): ~1000 µM (≈ 178 µg/mL)
